Values quoted from earlier work in US12064484B2, “Compositions for introducing RNA into cells” (ETHRIS GMBH, priority 2013, dated 2024).

Tested on: cell culture
Conditions: cholesterol-polyamine carbamates

Row | Compound | reporter gene expression (beta galactosidase plasmid DNA)
1 | CC(C)CCCC(C)C1CCC2C3CC=C4CC(OC(=O)NCCNCCCNCCN)CCC4(C)C3CCC12C (centres unmarked) [ethyl/propyl/ethyl] | three- to tenfold less efficient
2 | CC(C)CCCC(C)C1CCC2C3CC=C4CC(OC(=O)NCCCNCCCCNCCCN)CCC4(C)C3CCC12C (centres unmarked) [propyl/butyl/propyl] | by far the highest reporter gene expression
